Counter-ions that a name gives are not always drawn. Like-named read-outs stand apart in the source and are kept apart here.
Legend:
[1] = system: common cutworm (third-instar larvae); assay: Test 1 (Effect on Common Cutworm); format: in vivo; conditions: Spodoptera litura
Method: (§1) Compounds (a) through (g) described below were tested as comparative compounds in the same manner as the compounds of the present invention. All the tests were doubly carried out. Namely, each result was expressed by an average value of two data.
The emulsifiable concentrate of the test compound, prepared according to the method described in Formulation Example 1, was diluted with water to a specified concentration. Sweet potato leaves were sufficiently immersed in the dilution. The sweet potato leaves were dried and placed in a plastic cup having a diameter of 10 cm, and 10 third-instar larvae of common cutworm were set free in each cup. 48 hours after, the numbers of killed and living larvae were counted and the mortality was calculated.

yearling carps = assay: Test 5 (Fish Toxicity); format: in vivo, carp
Method: as §1
A water tank having a width of 60 cm, a length of 30 cm and a height of 40 cm was filled with water, and 10 yearling carps having a body length of about 5 cm were set free in the tank and adapted to the environment in the tank. An acetone solution of a test compound was applied into water so as to become a concentration of 1 or 0.1 ppm in water by adding said acetone solution at a rate of one part by volume per 100 parts by volume of water. 48 hours after, the number of killed and living carps was counted and the effect of a test compound on carps was examined.

[2] = system: green rice leafhopper (female adults); assay: Test 2 (Effect on Green Rice Leafhopper); format: in vivo; conditions: Nephotettix cincticeps, 48 hours, female adults, read-out: Mortality (%)
Method: as §1
Four or five seedlings of paddy rice with three leaves were bundled, and thereon the same dilution of the emulsifiable concentrate as used in Test 1 was sprayed in an amount of 3 ml. The bundle was dried and covered with a metal net cylinder, and 10 female adults of green rice leafhopper were set free in the cylinder. 48 hours after, the number of killed adults was counted.

[3] = 20 ppm, 48 hours, third-instar larvae, read-out: Mortality (%)
[4] = 100 ppm, 48 hours, third-instar larvae, read-out: Mortality (%)

## CNC(=O)ON=C(C)SC [(d), Methomyl, reference compound]
[1]; 48 h
  mortality at 20 ppm: 80%
  mortality at 100 ppm: 100%

## Oc1c(Cl)c(Cl)c(Cl)c(Cl)c1Cl [(f), PCP sodium salt, reference compound]
Yearling carps; 0.1 ppm in water
  Mortality(%) 48 Hours After: 55%
Yearling carps; 1 ppm in water
  Mortality(%) 48 Hours After: 100%

## CC(C)(CCCc1cccc(Oc2ccccc2)c1)c1cccc(C(F)(F)F)c1 [Compound 2, 1-(3-phenoxyphenyl)-4-(3-trifluoromethylphenyl)-4-methylpentane]
[2]
  mortality at 20 ppm: 80%
  mortality at 100 ppm: 100%

## CCOc1ccc(C(C)(C)CCCc2ccc(F)c(Oc3ccccc3)c2)cc1 [Compound 3, 1-(3-phenoxy-4-fluorophenyl)-4-(4-ethoxyphenyl)-4-methylpentane]
[1]; [3]
  mortality at 20 ppm: 100%
[1]; [4]
  mortality at 100 ppm: 100%
[2]
  mortality at 20 ppm: 100%
  mortality at 100 ppm: 100%

## COc1ccc(C(C)(C)CCCc2cccc(Oc3ccccc3)c2)cc1 [Compound 5, 1-(3-phenoxyphenyl)-4-(4-methoxyphenyl)-4-methylpentane]
[2]
  mortality at 20 ppm: 100%
  mortality at 100 ppm: 100%
Yearling carps; 0.1 ppm in water
  Mortality(%) 48 Hours After: 0%
Yearling carps; 1 ppm in water
  Mortality(%) 48 Hours After: 0%

## CCC(C)(CCCc1cccc(Oc2ccccc2)c1)c1ccc(Cl)cc1 (centres unmarked) [Compound 7, 1-(3-phenoxyphenyl)-4-(4-chlorophenyl)-4-methylhexane]
[2]
  mortality at 20 ppm: 65%
  mortality at 100 ppm: 100%

## CC(C)(CCCc1cccc(Oc2ccccc2)c1)c1ccc(Cl)cc1 [Compound 8, 1-(3-phenoxyphenyl)-4-(4-chlorophenyl)-4-methylpentane]
[1]; [3]
  mortality at 20 ppm: 95%
[1]; [4]
  mortality at 100 ppm: 100%
[2]
  mortality at 20 ppm: 100%
  mortality at 100 ppm: 100%
Yearling carps; 0.1 ppm in water
  Mortality(%) 48 Hours After: 0%
Yearling carps; 1 ppm in water
  Mortality(%) 48 Hours After: 0%

## CCOc1ccc(C(C)(C)CCCc2cccc(C(=O)c3ccccc3)c2)cc1Br [Compound 13, 1-(3-benzoylphenyl)-4-(3-bromo-4-ethoxyphenyl)-4-methylpentane]
[2]
  mortality at 20 ppm: 40%
  mortality at 100 ppm: 100%

## CCOc1ccc(C(C)(C)CCCc2cccc(Cc3ccccc3)c2)cc1 [Compound 14, 1-(3-benzylphenyl)-4-(4-ethoxyphenyl)-4-methylpentane]
[2]
  mortality at 20 ppm: 50%
  mortality at 100 ppm: 90%

## CCOc1ccc(C(C)(C)CCC(C#N)c2cccc(Oc3ccccc3)c2)cc1 (centres unmarked) [Compound 15, 1-(3-Phenoxyphenyl)-1-cyano-4-(4-ethoxyphenyl)-4-methylpentane]
[2]
  mortality at 20 ppm: 70%
  mortality at 100 ppm: 95%

## CC(C)(CCCc1cccc(Oc2ccccc2)c1)c1ccccc1 [Compound 17]
[1]; [3]
  mortality at 20 ppm: 50%
[1]; [4]
  mortality at 100 ppm: 100%
[2]
  mortality at 20 ppm: 95%
  mortality at 100 ppm: 100%
Yearling carps; 0.1 ppm in water
  Mortality(%) 48 Hours After: 0%
Yearling carps; 1 ppm in water
  Mortality(%) 48 Hours After: 0%

## CC(C)(CCCc1cccc(Oc2ccccc2)c1)c1ccc2ccccc2c1 [Compound 18, 1-(3-Phenoxyphenyl)-4-(2-naphthyl)-4-methylpentane]
[2]
  mortality at 20 ppm: 100%
  mortality at 100 ppm: 100%
Yearling carps; 0.1 ppm in water
  Mortality(%) 48 Hours After: 0%
Yearling carps; 1 ppm in water
  Mortality(%) 48 Hours After: 0%

## CC(C)(CCCc1cccc(Oc2ccccc2)c1)c1cccc(Cl)c1 [Compound 21]
[2]
  mortality at 20 ppm: 100%
  mortality at 100 ppm: 100%
Yearling carps; 0.1 ppm in water
  Mortality(%) 48 Hours After: 0%
Yearling carps; 1 ppm in water
  Mortality(%) 48 Hours After: 0%

## COc1ccc(C(C)(C)CCCc2cccc(Oc3ccccc3)c2)cc1OC [Compound 22]
[2]
  mortality at 20 ppm: 50%
  mortality at 100 ppm: 95%

## CCC(CCCc1cccc(Oc2ccccc2)c1)c1ccc(Cl)cc1 (centres unmarked) [Compound 23]
[2]
  mortality at 20 ppm: 75%
  mortality at 100 ppm: 100%
Yearling carps; 0.1 ppm in water
  Mortality(%) 48 Hours After: 0%
Yearling carps; 1 ppm in water
  Mortality(%) 48 Hours After: 0%

## CC(C)(CCCc1cccc(Oc2ccccc2)c1)c1ccc(OC(F)(F)C(Cl)Cl)cc1 [Compound 25]
[2]
  mortality at 20 ppm: 90%
  mortality at 100 ppm: 100%

## CC(C)(CCCc1cccc(Oc2ccccc2)c1)c1ccc(Cl)c(Cl)c1 [Compound 26]
[2]
  mortality at 20 ppm: 50%
  mortality at 100 ppm: 100%
Yearling carps; 0.1 ppm in water
  Mortality(%) 48 Hours After: 0%
Yearling carps; 1 ppm in water
  Mortality(%) 48 Hours After: 0%

## CCOc1ccc(C(C)(C)CCCc2cccc(Oc3ccccc3)c2)cc1OCC [Compound 28]
[2]
  mortality at 20 ppm: 80%
  mortality at 100 ppm: 100%

## CCOc1ccc(C(C)(C)CCCc2cccc(Sc3ccccc3)c2)cc1 [Compound 30]
[2]
  mortality at 20 ppm: 70%
  mortality at 100 ppm: 100%

## CC(C)(CCCc1cccc(Oc2ccccc2)c1)c1ccc(OC(F)F)cc1 [Compound 32]
[1]; [3]
  mortality at 20 ppm: 100%
[1]; [4]
  mortality at 100 ppm: 100%
[2]
  mortality at 20 ppm: 100%
  mortality at 100 ppm: 100%

## CCCOc1ccc(C(C)(C)CCCc2cccc(Oc3ccccc3)c2)cc1 [Compound 33]
[2]
  mortality at 20 ppm: 100%
  mortality at 100 ppm: 100%
Yearling carps; 0.1 ppm in water
  Mortality(%) 48 Hours After: 0%
Yearling carps; 1 ppm in water
  Mortality(%) 48 Hours After: 0%

## CCOc1ccc(C(C)(C)CCCc2cccc(C(=O)c3ccccc3)c2)cc1 [Compound 34]
[2]
  mortality at 20 ppm: 50%
  mortality at 100 ppm: 100%

## CCOc1ccc(C(C)(C)CCCc2ccc(F)c(Sc3ccccc3)c2)cc1 [Compound 36]
[2]
  mortality at 20 ppm: 100%
  mortality at 100 ppm: 100%

## CC(C)(CCCc1cccc(Oc2ccccc2)c1)c1ccc(OC(F)=CCl)cc1 [Compound 37]
[1]; [3]
  mortality at 20 ppm: 80%
[1]; [4]
  mortality at 100 ppm: 100%

## CCOc1ccc(C2(CCCc3ccc(F)c(Oc4ccccc4)c3)CCC2)cc1 [Compound 38, 1-(3-Phenoxy-4-fluorophenyl)-3-[1-(4-ethoxyphenyl)cyclobutyl]propane]
[2]
  mortality at 20 ppm: 100%
  mortality at 100 ppm: 100%
Yearling carps; 0.1 ppm in water
  Mortality(%) 48 Hours After: 0%
Yearling carps; 1 ppm in water
  Mortality(%) 48 Hours After: 0%

## CCOc1ccc(C(C)(C)CCCc2cccc(Oc3ccc(Cl)cc3)c2)cc1 [Compound 39]
[2]
  mortality at 20 ppm: 90%
  mortality at 100 ppm: 100%

## CCOc1ccc(C(C)(C)CCCc2cccc(Oc3ccc(F)cc3)c2)cc1 [Compound 41]
[2]
  mortality at 20 ppm: 100%
  mortality at 100 ppm: 100%
Yearling carps; 0.1 ppm in water
  Mortality(%) 48 Hours After: 0%
Yearling carps; 1 ppm in water
  Mortality(%) 48 Hours After: 0%

## CCOc1ccc(C(C)(C)CCCc2cccc(Oc3ccccc3F)c2)cc1 [Compound 42]
[2]
  mortality at 20 ppm: 100%
  mortality at 100 ppm: 100%

## C#CCOc1ccc(C(C)(C)CCCc2cccc(Oc3ccccc3)c2)cc1 [Compound 45]
[1]; [3]
  mortality at 20 ppm: 80%
[1]; [4]
  mortality at 100 ppm: 100%
[2]
  mortality at 20 ppm: 80%
  mortality at 100 ppm: 100%

## CC(C)(CCCc1cccc(Oc2ccccc2)c1)c1ccc(Oc2ccccc2)cc1 [Compound 46]
[1]; [3]
  mortality at 20 ppm: 85%
[1]; [4]
  mortality at 100 ppm: 100%
[2]
  mortality at 20 ppm: 100%
  mortality at 100 ppm: 100%

## CC(C)(CCCc1cccc(Oc2ccccc2)c1)c1ccc(Br)cc1 [Compound 47]
[2]
  mortality at 20 ppm: 75%
  mortality at 100 ppm: 100%

## CC(C)C(C)(CCCc1cccc(Oc2ccccc2)c1)c1ccc(Cl)cc1 (centres unmarked) [Compound 49]
[2]
  mortality at 20 ppm: 60%
  mortality at 100 ppm: 100%

## Clc1ccc(C2(CCCc3cccc(Oc4ccccc4)c3)CC2(Cl)Cl)cc1 (centres unmarked) [Compound 50, 1-(3-Phenoxyphenyl)-3-[1-(4-chlorophenyl)-2,2-dichlorocyclopropyl]-propane]
[2]
  mortality at 20 ppm: 50%
  mortality at 100 ppm: 100%

## C#CC(CCC(C)(C)c1ccc(OCC)cc1)c1ccc(F)c(Oc2ccccc2)c1 (centres unmarked) [Compound 51, 1-(3-Phenoxy-4-fluorophenyl)-1-ethynyl-4-(4-ethoxyphenyl)-4-methylpentane]
[2]
  mortality at 20 ppm: 60%
  mortality at 100 ppm: 90%

## CC(C)(CCCc1cccc(Oc2ccccc2)c1)c1ccc(C#N)cc1 [Compound 58, 1-(3-Phenoxyphenyl)-4-(4-cyanophenyl)-4-methylpentane]
[1]; [3]
  mortality at 20 ppm: 80%
[1]; [4]
  mortality at 100 ppm: 100%
[2]
  mortality at 20 ppm: 100%
  mortality at 100 ppm: 100%

## CC(C)=Cc1ccc(C(C)(C)CCCc2cccc(Oc3ccccc3)c2)cc1 [Compound 59]
[2]
  mortality at 20 ppm: 70%
  mortality at 100 ppm: 100%

## CC(C)(CCC(C#N)c1ccc(F)c(Oc2ccccc2)c1)c1ccc(Cl)cc1 (centres unmarked) [Compound 62, 1-(3-Phenoxy-4-fluorophenyl)-1-cyano-4-(4-chlorophenyl)-4-methylpentane]
[2]
  mortality at 20 ppm: 45%
  mortality at 100 ppm: 100%

## CC(C)(CCCc1cccc(Oc2ccccc2)c1)c1ccc(C=C(Cl)Cl)cc1 [Compound 63]
[1]; [3]
  mortality at 20 ppm: 70%
[1]; [4]
  mortality at 100 ppm: 100%
[2]
  mortality at 20 ppm: 100%
  mortality at 100 ppm: 100%

## CCOc1ccc(C(C)(C)CCCc2ccc(F)c(Oc3ccc(F)cc3)c2)cc1Cl [Compound 67]
[1]; [3]
  mortality at 20 ppm: 60%
[1]; [4]
  mortality at 100 ppm: 100%
[2]
  mortality at 20 ppm: 100%
  mortality at 100 ppm: 100%
Yearling carps; 0.1 ppm in water
  Mortality(%) 48 Hours After: 0%
Yearling carps; 1 ppm in water
  Mortality(%) 48 Hours After: 0%

## CC(C)(CCCc1cccc(Oc2ccccc2)c1)c1ccc(C(=O)OCCF)cc1 [Compound 68]
[2]
  mortality at 20 ppm: 40%
  mortality at 100 ppm: 80%

## CC(C)(CCCc1cccc(Oc2ccccc2)c1)c1ccc(C(=O)OC(F)(F)C(F)F)cc1 [Compound 69]
[2]
  mortality at 20 ppm: 75%
  mortality at 100 ppm: 100%
